Test system: cholesterol absorption
Experiment: Cholesterol Absorption Assay in Mice
Type: in vivo, C57BL/6 male mice
Details: highest dose tested (oral, 0.12-10 mg/kg range); [3H]-cholesterol counts in liver and plasma, 5 h after cholesterol dose
Method: Compounds of this invention were determined to inhibit cholesterol absorption employing the Cholesterol Absorption Assay in Mice, below. This assay involves comparing a test compound to ezetimibe with respect to their ability to inhibit cholesterol absorption in mice.
Cholesterol Absorption Assay in Mice: C57BL/6 male mice (n=6/group), aged 10-14 weeks, were dosed orally with 0.2 ml 0.25% methyl cellulose solution with or without test compound or ezetimibe (0.12-10 mg/kg). Thirty minutes later all of the mice were dosed orally with 0.2 ml […]™ containing 2 μCi [^3H]-cholesterol per mouse. Five hours later, the animals were euthanized, and liver and blood were collected. Cholesterol counts in liver and plasma were determined, and percent inhibition of cholesterol absorption was calculated.

O=C1[C@H](CC[C@H](O)c2ccc(F)cc2)[C@@H](c2ccc(O)cc2)N1c1ccc(F)cc1 [ezetimibe]
inhibition of cholesterol absorption: > 90%
